The text below walks through data of patent US7923473B2, “Aromatic compounds and their use in medical applications” (Revotar Biopharmaceuticals AG, priority 2005, dated 2011).

Molecules are shown by their SMILES.

The target of test [1] is human L-Selectin-IgG-chimera (Homo sapiens, UniProt P14151). Put plainly: Sialyl Lewis^x Tyrosine Sulfate Assay (sLe^x TSA), L-selectin. The note with it: inhibition of binding of selectin chimera to sLe^x-tyrosine sulfate polyacrylamide ligand complex. On the procedure: (§1) Compounds of the present invention are assayed on a molecular level for their ability to inhibit the binding of P-, L-, or E-selectin chimeric molecules to sLe^x and tyrosinesulfate residues linked to a polymeric matrix as a PSGL-1 substitute. IC50-values are determined.
Chain of human L-Selectin-IgG-chimera (P14151 with tags, fused parts or gaps limits assumed): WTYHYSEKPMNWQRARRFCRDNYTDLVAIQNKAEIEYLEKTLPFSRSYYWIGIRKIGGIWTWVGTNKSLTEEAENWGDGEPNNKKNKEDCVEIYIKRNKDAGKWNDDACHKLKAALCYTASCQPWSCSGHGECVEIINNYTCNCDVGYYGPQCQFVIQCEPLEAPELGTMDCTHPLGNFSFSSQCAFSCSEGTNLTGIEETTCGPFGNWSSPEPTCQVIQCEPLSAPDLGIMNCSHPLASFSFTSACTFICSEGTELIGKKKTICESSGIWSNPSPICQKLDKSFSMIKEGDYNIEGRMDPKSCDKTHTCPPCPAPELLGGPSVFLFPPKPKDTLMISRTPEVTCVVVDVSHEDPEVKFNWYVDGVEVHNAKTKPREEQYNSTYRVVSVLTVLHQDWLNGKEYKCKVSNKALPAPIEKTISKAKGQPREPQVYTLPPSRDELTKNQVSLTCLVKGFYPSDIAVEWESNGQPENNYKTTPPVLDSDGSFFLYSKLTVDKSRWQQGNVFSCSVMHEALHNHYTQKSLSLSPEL
(§2) Microtiter plates are coated overnight in carbonate buffer pH9.6 with goat anti human Fc mAB (10 μg/ml). After washing in assay buffer (25 mM 4-(2-hydroxyethyl)-1-piperazineethanesulfonic acid (HEPES), 150 mM NaCl, 1 mM CaCl2 pH7.4) and blocking (3% bovine serum albumin (BSA) in assay buffer) plates are incubated for 2 h at 37° C. with human P-Selectin-IgG-chimera (0.61 nM respectively 150 ng/mL) or human L-Selectin-IgG-chimera (0.61 nM respectively 89 ng/mL) or human E-Selectin-IgG-chimera (0.61 nM respectively 131 ng/mL). 5 μl of sLe^x-tyrosine sulfate polyacrylamide (1 mg/ml) carrying 15% sLe^x, 10% Tyrosine-sulfate and 5% biotin is complexed with 20 μl Streptavidin-Peroxidase solution (1 mg/ml) and 25 μl assay buffer without CaCl2. For use in the assay, the ligand complex is diluted 1:10000 in assay buffer and further diluted 1:1 with varying amounts of compounds in assay buffer incl. 2% DMSO. This mixture is added to the wells precoated with E- or P-selectin. After incubation for 2 h at 37° C., wells are washed for six times with in assay buffer incl. 0.005% Polyoxyethylenesorbitan monolaurate (TWEEN 20), developed for 10-15 min with 20 μl 3,3′,5,5′-tetramethylbenzidine (TMB)/H202 substrate solution and stopped with 20 μl 1 M H2SO4. Bound sLe^x-Tyrosine sulfate ligand complex is determined by measuring optical density at 450 nm vs. 620 nm in a Fusion alpha-FP reader (sold from Packard Bioscience, Dreieich, Germany).

Test [2] addresses T1, human E-Selectin-IgG-chimera (Homo sapiens, UniProt P16581). Put plainly: Sialyl Lewis^x Tyrosine Sulfate Assay (sLe^x TSA), E-selectin. As to conditions: inhibition of binding of selectin chimera to sLe^x-tyrosine sulfate polyacrylamide ligand complex. On the procedure:
as §1, §2

In test [3] the target is T2, human P-Selectin-IgG-chimera (Homo sapiens, UniProt P16109). Put plainly: Sialyl Lewis^x Tyrosine Sulfate Assay (sLe^x TSA), P-selectin. As to conditions: inhibition of binding of selectin chimera to sLe^x-tyrosine sulfate polyacrylamide ligand complex. On the procedure:
as §1, §2

For test [4], the target named is T1, human E-Selectin-IgG-chimera. Put plainly: Flow chamber assay / cell adhesion and rolling under flow conditions, E-selectin. The class given is cell-based. As to conditions: 125 μM compound; HL-60 cells; flow shear 1 dyne/cm^2; attached cells after 5 minutes continuous flow. On the procedure: (§3) To assess the capability of compounds to inhibit cell binding under dynamic conditions resembling the flow in a blood vessel, flow chamber assays addressing/testing binding of HL-60 cells/various cell lines to P-selectin, L-selectin and E-selectin chimeric molecules are performed.
(§4) Cell attachment under flow conditions are determined using a parallel flow chamber system. A 35 mm polystyrene culture dish is coated for 1 hour at room temperature with coating buffer (50 mM tris-(hydroxymethyl)aminomethane buffer (Tris), 150 mM NaCl, 2 mM CaCl2; pH 7.4) containing human E- or P-selectin-IgG chimera at concentrations of 2.5 μg/ml or 10 μg/ml, respectively. After removal of the coating solution non specific binding sites are blocked for an additional hour with 1% BSA in coating buffer at room temperature. After washing with assay buffer (“Roswell Park Memorial Institute 1640” (RPMI 1640)+10 mM HEPES) the dish is fitted into a parallel plate laminar flow chamber (sold from Glycotech, Rockville, Md.) and mounted on an inverted phase-contrast microscope (sold from Olympus, Hamburg, Germany) equipped with a CCD camera (JVC) that is connected to a PC. Employing a peristaltic pump (sold from Ismatec, Wertheim-Mondfeld, Germany) the re-circulating system is equilibrated with assay buffer containing 125 μM compound or vehicle control (DMSO). Cells (1 million/ml) are added to the chamber and allowed to distribute for 2 minutes at a high flow rate. The flow rate is then decreased resulting in a calculated flow shear of 1 dyne/cm^2. Video sequences of 10 low power fields are digitally recorded after 5 minutes continuous flow. The percentage of modulation is calculated from the mean number of cells per field that attached to the coated dish surface in the presence versus absence of compound of […].

Test [5] concerns the target T2, human P-Selectin-IgG-chimera. Put plainly: Flow chamber assay / cell adhesion and rolling under flow conditions, P-selectin. It is filed as cell-based. As to conditions: 125 μM compound; HL-60 cells; flow shear 1 dyne/cm^2; attached cells after 5 minutes continuous flow. Here is the method:
as §3, §4

T1 sequence (P16581 with tags, fused parts or gaps limits assumed): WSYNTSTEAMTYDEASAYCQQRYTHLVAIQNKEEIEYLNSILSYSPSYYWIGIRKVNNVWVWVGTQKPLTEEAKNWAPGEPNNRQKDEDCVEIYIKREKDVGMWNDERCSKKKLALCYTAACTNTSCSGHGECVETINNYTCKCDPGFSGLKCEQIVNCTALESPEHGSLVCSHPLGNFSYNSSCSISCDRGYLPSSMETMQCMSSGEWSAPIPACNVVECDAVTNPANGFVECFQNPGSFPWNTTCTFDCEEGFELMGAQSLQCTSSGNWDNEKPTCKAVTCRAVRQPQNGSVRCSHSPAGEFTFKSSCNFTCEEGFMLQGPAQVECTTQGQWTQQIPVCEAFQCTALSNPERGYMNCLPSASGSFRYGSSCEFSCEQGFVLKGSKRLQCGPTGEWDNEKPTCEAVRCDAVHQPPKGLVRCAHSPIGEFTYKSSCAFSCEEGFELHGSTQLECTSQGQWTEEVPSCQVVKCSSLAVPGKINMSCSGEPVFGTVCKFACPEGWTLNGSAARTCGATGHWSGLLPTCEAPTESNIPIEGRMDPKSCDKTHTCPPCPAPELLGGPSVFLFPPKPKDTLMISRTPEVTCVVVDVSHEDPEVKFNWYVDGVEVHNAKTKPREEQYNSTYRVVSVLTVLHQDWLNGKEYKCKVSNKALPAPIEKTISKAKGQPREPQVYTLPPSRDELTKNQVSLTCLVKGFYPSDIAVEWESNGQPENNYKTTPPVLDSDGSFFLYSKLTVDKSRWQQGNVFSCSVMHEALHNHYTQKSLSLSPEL
T2 sequence (P16109 with tags, fused parts or gaps limits assumed): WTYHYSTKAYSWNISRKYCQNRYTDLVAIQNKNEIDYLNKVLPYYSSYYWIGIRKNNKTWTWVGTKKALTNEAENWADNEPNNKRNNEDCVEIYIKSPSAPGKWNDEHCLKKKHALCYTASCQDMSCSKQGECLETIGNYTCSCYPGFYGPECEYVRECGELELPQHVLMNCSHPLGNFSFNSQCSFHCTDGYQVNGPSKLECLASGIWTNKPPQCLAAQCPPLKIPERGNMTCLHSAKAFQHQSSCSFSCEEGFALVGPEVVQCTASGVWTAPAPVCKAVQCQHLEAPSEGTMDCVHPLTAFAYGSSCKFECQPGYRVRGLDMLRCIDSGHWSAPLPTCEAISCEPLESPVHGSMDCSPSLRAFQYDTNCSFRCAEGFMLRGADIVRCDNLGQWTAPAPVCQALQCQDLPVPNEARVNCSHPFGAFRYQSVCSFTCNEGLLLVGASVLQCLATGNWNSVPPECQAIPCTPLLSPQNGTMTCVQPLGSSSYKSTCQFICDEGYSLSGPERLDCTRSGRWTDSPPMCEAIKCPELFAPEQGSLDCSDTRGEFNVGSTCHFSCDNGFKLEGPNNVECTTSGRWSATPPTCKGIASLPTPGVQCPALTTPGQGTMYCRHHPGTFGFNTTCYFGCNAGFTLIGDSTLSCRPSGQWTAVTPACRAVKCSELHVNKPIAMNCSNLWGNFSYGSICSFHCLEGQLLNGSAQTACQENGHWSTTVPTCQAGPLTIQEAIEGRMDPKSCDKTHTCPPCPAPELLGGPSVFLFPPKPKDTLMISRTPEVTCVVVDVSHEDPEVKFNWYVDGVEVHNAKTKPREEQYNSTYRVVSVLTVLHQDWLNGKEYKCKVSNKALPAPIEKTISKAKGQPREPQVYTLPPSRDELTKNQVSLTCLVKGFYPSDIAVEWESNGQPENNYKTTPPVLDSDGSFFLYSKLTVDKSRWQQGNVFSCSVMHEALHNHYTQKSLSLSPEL

As for `O=C(O)Cc1cccc(-c2cc(CCCCCCc3ccc(O[C@H]4O[C@H](CO)[C@@H](O)[C@H](O)[C@@H]4O)c(-c4cccc(CC(=O)O)c4)c3)ccc2O[C@H]2O[C@H](CO)[C@@H](O)[C@H](O)[C@@H]2O)c1` [Bimosiamose, bimosiamose, reference compound], the IC50 (commonly the concentration that inhibits the measured activity by half) in test [1] was more than 500 µM.

Take `COc1cc(CCC(=O)Nc2cccc(N)c2)cc(OC)c1OC` [Compound 60]: the IC50 in test [1] is 12.8 µM; in test [2], 18.2 µM; in test [3], 15 µM.

`COc1ccc(-c2cccc(C(=O)Nc3ccccc3-c3ccc(CC(=O)O)s3)c2)c(OC)c1OC` [Compound 61]: the values for the IC50 in test [1], in test [2] and in test [3] were 385 µM, more than 500 µM and 186 µM, respectively.

With `CCOC(=O)c1cc(-c2ccc(NC(=O)Cc3ccc(OC)c(OC)c3OC)cc2)oc1C` [Compound 62], the values for the IC50 in test [1], in test [2] and in test [3] were 45.3 µM, 74.7 µM and 46.4 µM, respectively.

On to `COc1ccc(-c2cc(C(=O)Nc3ccccc3-c3ccc(CC(=O)O)s3)cc([N+](=O)[O-])c2)c(OC)c1OC` [Compound 63], for which the IC50 in test [1] was 76.1 µM; in test [2], more than 500 µM; in test [3], 28.5 µM. For the same compound, the “E-Selectin normalized ratio of %-inhibition of compound divided by %-inhibition of bimosiamose” value in test [4] was determined as 1.46 Ratio. In addition, the “P-Selectin normalized ratio of %-inhibition of compound divided by %-inhibition of bimosiamose” value in test [5] is listed as 1.06 Ratio.

Regarding `COc1ccc(-c2cccc(C(=O)Nc3ccccc3-c3ccc(C(=O)O)s3)c2)c(OC)c1OC` [Compound 64], the IC50 in test [1] was 383 µM; in test [2] it was more than 500 µM; in test [3], 107 µM. The “E-Selectin normalized ratio of %-inhibition of compound divided by %-inhibition of bimosiamose” value in test [4] amounted to 1.27 Ratio. Besides, the “P-Selectin normalized ratio of %-inhibition of compound divided by %-inhibition of bimosiamose” value in test [5] worked out at 1.01 Ratio.

On to `COc1ccc(-c2cccc(C(=O)Nc3ccccc3-c3ccc(Cc4nnn[nH]4)s3)c2)c(OC)c1OC` [Compound 87, 2′,3′,4′-Trimethoxy-biphenyl-3-carboxylic acid {2-[5-(1H-tetrazol-5-ylmethyl)-thiophen-2-yl]-phenyl}-amide], for which the IC50 in test [1] was found to be 59.5 µM; in test [3] it was 32.6 µM. For the same compound, the “E-Selectin normalized ratio of %-inhibition of compound divided by %-inhibition of bimosiamose” value in test [4] came out at 1.23 Ratio. In addition, the “P-Selectin normalized ratio of %-inhibition of compound divided by %-inhibition of bimosiamose” value in test [5] stood at 2.62 Ratio.
